The source of these data is patent US20070128217A1 (priority 2003, published 2007).

Experiment [1] deals with control sera (pooled serum of ten healthy LUMC hospital workers; commercial negative donor pooled serum from the Dutch bloodbank). Format: binding, human. More on the design: Binding of Control serum LUMC to linear peptides / Binding of Control serum Blood-bank to linear peptides / Binding of Control serum LUMC to looped peptides / Binding of Control Serum Blood-Bank to Looped peptides / Binding of Control serum LUMC to linear peptides of the protein M of SARS-CoV Urbani / Binding of Control serum Blood-bank to linear peptides of the protein M of SARS-CoV Urbani / Binding of Control serum LUMC to looped peptides of the protein M of SARS-CoV Urbani / Binding of Control Serum Blood-Bank to Looped peptides of the protein M of SARS-CoV Urbani: unit not given here.

The subject of experiment [2] is rabbit serum obtained by immunizing a rabbit with the SARS-CoV strain Frankfurt 1. It counts as binding. Details: Binding of a rabbit serum to linear peptides / Binding of a rabbit serum to looped peptides / Rabbit serum linear peptides / Rabbit serum looped peptides / Binding of a rabbit serum to linear peptides of protein N of SARS-CoV Urbani (Rabbit serum linear peptides) / Binding of a rabbit serum to looped/cyclic peptides of protein N of SARS-CoV Urbani (Rabbit serum looped peptides): unit not given here.

For the sequence GHQTAAFRDVLVVLN, in experiment [1], the “Binding of Control Serum Blood-Bank to Looped peptides” value came to 0.6, the “Binding of Control serum Blood-bank to linear peptides” value stood at 0.5, the “Binding of Control serum LUMC to linear peptides” value was determined as 0.8 and the “Binding of Control serum LUMC to looped peptides” value came to 0.6. For the same sequence, in experiment [2], the “Rabbit serum linear peptides” value stood at 0.1 and the “Rabbit serum looped peptides” value came out at 0.5.
Take GIAIAMACIVGLMWL: in experiment [1], the “Binding of Control Serum Blood-Bank to Looped peptides of the protein M of SARS-CoV Urbani” value is listed as 0.7, the “Binding of Control serum Blood-bank to linear peptides of the protein M of SARS-CoV Urbani” value was found to be 0.8, the “Binding of Control serum LUMC to linear peptides of the protein M of SARS-CoV Urbani” value amounted to 0.5 and the “Binding of Control serum LUMC to looped peptides of the protein M of SARS-CoV Urbani” value came to 0.8. Also, in experiment [2], the “Rabbit serum linear peptides” value is 0.3 and the “Rabbit serum looped peptides” value stood at 0.1.
On to GISTPKLKEDYQIGG, for which, in experiment [1], the “Binding of Control Serum Blood-Bank to Looped peptides” value is recorded as 0.4, the “Binding of Control serum Blood-bank to linear peptides” value amounted to 0.5, the “Binding of Control serum LUMC to linear peptides” value is 0.4 and the “Binding of Control serum LUMC to looped peptides” value stood at 0.4. In experiment [2], the “Binding of a rabbit serum to linear peptides” value is given as 0.1 and the “Binding of a rabbit serum to looped peptides” value was 0.3.
Consider GNYKLNTDHAGSNDN, for which, in experiment [1], the “Binding of Control Serum Blood-Bank to Looped peptides of the protein M of SARS-CoV Urbani” value was 0.6, the “Binding of Control serum Blood-bank to linear peptides of the protein M of SARS-CoV Urbani” value was 0.6, the “Binding of Control serum LUMC to linear peptides of the protein M of SARS-CoV Urbani” value turned out to be 0.7 and the “Binding of Control serum LUMC to looped peptides of the protein M of SARS-CoV Urbani” value was 0.7. For the same sequence, in experiment [2], the “Rabbit serum linear peptides” value was determined as 0.0 and the “Rabbit serum looped peptides” value was 0.2.
Take GSITAQPVKIDNASP: in experiment [1], the “Binding of Control Serum Blood-Bank to Looped peptides” value came out at 0.6, the “Binding of Control serum Blood-bank to linear peptides” value was 0.6, the “Binding of Control serum LUMC to linear peptides” value is listed as 0.6 and the “Binding of Control serum LUMC to looped peptides” value came to 0.5. Also, in experiment [2], the “Binding of a rabbit serum to linear peptides” value worked out at 0.2 and the “Binding of a rabbit serum to looped peptides” value is reported as 0.4.
For the sequence GSSGVANPAMDPIYD, in experiment [1], the “Binding of Control Serum Blood-Bank to Looped peptides” value worked out at 0.4, the “Binding of Control serum Blood-bank to linear peptides” value turned out to be 0.6, the “Binding of Control serum LUMC to linear peptides” value is on record as 0.7 and the “Binding of Control serum LUMC to looped peptides” value was determined as 0.4. For the same sequence, in experiment [2], the “Binding of a rabbit serum to linear peptides” value was determined as 0.1 and the “Binding of a rabbit serum to looped peptides” value is 0.5.
Take GTQVLKTMSLYMAIS: in experiment [1], the “Binding of Control Serum Blood-Bank to Looped peptides” value is 0.7, the “Binding of Control serum Blood-bank to linear peptides” value came out at 0.6, the “Binding of Control serum LUMC to linear peptides” value came out at 0.6 and the “Binding of Control serum LUMC to looped peptides” value was 0.6. Moreover, in experiment [2], the “Binding of a rabbit serum to linear peptides” value was 0.2 and the “Binding of a rabbit serum to looped peptides” value turned out to be 0.4.
Regarding GTTVLLKEPCPSGTY, in experiment [1], the “Binding of Control Serum Blood-Bank to Looped peptides” value was 0.7, the “Binding of Control serum Blood-bank to linear peptides” value is recorded as 0.7, the “Binding of Control serum LUMC to linear peptides” value was found to be 0.7 and the “Binding of Control serum LUMC to looped peptides” value came to 0.8. For the same sequence, in experiment [2], the “Rabbit serum linear peptides” value was 0.4 and the “Rabbit serum looped peptides” value came to 0.4.
GTYEGNSPFHPLADN: in experiment [1], the “Binding of Control Serum Blood-Bank to Looped peptides” value amounted to 0.9, the “Binding of Control serum Blood-bank to linear peptides” value was determined as 0.7, the “Binding of Control serum LUMC to linear peptides” value came out at 0.8 and the “Binding of Control serum LUMC to looped peptides” value is on record as 0.7. In addition, in experiment [2], the “Rabbit serum linear peptides” value is on record as 0.6 and the “Rabbit serum looped peptides” value stood at 0.5.
Consider GVKDYVVVHGYFTEV, for which, in experiment [1], the “Binding of Control Serum Blood-Bank to Looped peptides” value is 1.1, the “Binding of Control serum Blood-bank to linear peptides” value is reported as 0.5, the “Binding of Control serum LUMC to linear peptides” value was 0.7 and the “Binding of Control serum LUMC to looped peptides” value turned out to be 1.3. Besides, in experiment [2], the “Binding of a rabbit serum to linear peptides” value is reported as 0.1 and the “Binding of a rabbit serum to looped peptides” value is reported as 0.7.
In the case of HNYDYCIPYNSVTDT, in experiment [1], the “Binding of Control Serum Blood-Bank to Looped peptides” value amounted to 0.7, the “Binding of Control serum Blood-bank to linear peptides” value was determined as 0.3, the “Binding of Control serum LUMC to linear peptides” value is 0.4 and the “Binding of Control serum LUMC to looped peptides” value is listed as 0.6. In experiment [2], the “Binding of a rabbit serum to linear peptides” value was found to be 0.1 and the “Binding of a rabbit serum to looped peptides” value is on record as 0.5.
As for HPLADNKFALTCTST, in experiment [1], the “Binding of Control Serum Blood-Bank to Looped peptides” value is 0.8, the “Binding of Control serum Blood-bank to linear peptides” value was 0.7, the “Binding of Control serum LUMC to linear peptides” value came to 0.6 and the “Binding of Control serum LUMC to looped peptides” value came to 0.9. Moreover, in experiment [2], the “Rabbit serum linear peptides” value was found to be 0.5 and the “Rabbit serum looped peptides” value worked out at 0.1.
As for HSGVKDYVVVHGYFT, in experiment [1], the “Binding of Control Serum Blood-Bank to Looped peptides” value is 2.2, the “Binding of Control serum Blood-bank to linear peptides” value worked out at 0.7, the “Binding of Control serum LUMC to linear peptides” value was determined as 0.8 and the “Binding of Control serum LUMC to looped peptides” value is 2.3. Moreover, in experiment [2], the “Binding of a rabbit serum to linear peptides” value was determined as 0.1 and the “Binding of a rabbit serum to looped peptides” value amounted to 0.6.
Regarding HTMVQTCTPNVTINC, in experiment [1], the “Binding of Control Serum Blood-Bank to Looped peptides” value stood at 0.8, the “Binding of Control serum Blood-bank to linear peptides” value is listed as 0.9, the “Binding of Control serum LUMC to linear peptides” value was 0.7 and the “Binding of Control serum LUMC to looped peptides” value worked out at 0.6. Moreover, in experiment [2], the “Rabbit serum linear peptides” value stood at 0.4 and the “Rabbit serum looped peptides” value turned out to be 0.2.
As for IGGYSEDRHSGVKDY, in experiment [1], the “Binding of Control Serum Blood-Bank to Looped peptides” value turned out to be 0.7, the “Binding of Control serum Blood-bank to linear peptides” value is on record as 0.4, the “Binding of Control serum LUMC to linear peptides” value amounted to 0.5 and the “Binding of Control serum LUMC to looped peptides” value is on record as 0.6. In addition, in experiment [2], the “Binding of a rabbit serum to linear peptides” value amounted to 0.1 and the “Binding of a rabbit serum to looped peptides” value was 0.6.
Turning to IGNYKLNTDHAGSND, in experiment [1], the “Binding of Control Serum Blood-Bank to Looped peptides of the protein M of SARS-CoV Urbani” value is given as 0.7, the “Binding of Control serum Blood-bank to linear peptides of the protein M of SARS-CoV Urbani” value was 0.5, the “Binding of Control serum LUMC to linear peptides of the protein M of SARS-CoV Urbani” value is 0.3 and the “Binding of Control serum LUMC to looped peptides of the protein M of SARS-CoV Urbani” value turned out to be 0.8. In experiment [2], the “Rabbit serum linear peptides” value is given as 0.5 and the “Rabbit serum looped peptides” value is reported as 0.0.
Take IIMRTFRIAIWNLDV: in experiment [1], the “Binding of Control Serum Blood-Bank to Looped peptides of the protein X3 of SARS-CoV Urbani” value came to 0.9, the “Binding of Control serum Blood-bank to linear peptides of the protein X3 of SARS-CoV Urbani” value is on record as 0.9, the “Binding of Control serum LUMC to linear peptides of the protein X3 of SARS-CoV Urbani” value is 0.7 and the “Binding of Control serum LUMC to looped peptides of the protein X3 of SARS-CoV Urbani” value is 0.6. Further, in experiment [2], the “Rabbit serum linear peptides” value is listed as 0.3 and the “Rabbit serum looped peptides” value is on record as 0.5.
For the sequence IISSIVRQLFKPLTK, in experiment [1], the “Binding of Control Serum Blood-Bank to Looped peptides of the protein X3 of SARS-CoV Urbani” value is given as 0.6, the “Binding of Control serum Blood-bank to linear peptides of the protein X3 of SARS-CoV Urbani” value came to 0.8, the “Binding of Control serum LUMC to linear peptides of the protein X3 of SARS-CoV Urbani” value was 0.8 and the “Binding of Control serum LUMC to looped peptides of the protein X3 of SARS-CoV Urbani” value was 0.6. Moreover, in experiment [2], the “Rabbit serum linear peptides” value came to 0.6 and the “Rabbit serum looped peptides” value was 0.4.
For ILIIIMRTFRIAIWN, in experiment [1], the “Binding of Control Serum Blood-Bank to Looped peptides of the protein X3 of SARS-CoV Urbani” value is 0.7, the “Binding of Control serum Blood-bank to linear peptides of the protein X3 of SARS-CoV Urbani” value was determined as 0.8, the “Binding of Control serum LUMC to linear peptides of the protein X3 of SARS-CoV Urbani” value was determined as 0.5 and the “Binding of Control serum LUMC to looped peptides of the protein X3 of SARS-CoV Urbani” value is listed as 0.3. In experiment [2], the “Rabbit serum linear peptides” value is reported as 0.5 and the “Rabbit serum looped peptides” value is reported as 0.6.
Consider ISTPKLKEDYQIGGY, for which, in experiment [1], the “Binding of Control Serum Blood-Bank to Looped peptides” value is given as 0.7, the “Binding of Control serum Blood-bank to linear peptides” value turned out to be 0.7, the “Binding of Control serum LUMC to linear peptides” value is 1.0 and the “Binding of Control serum LUMC to looped peptides” value came out at 0.5. In addition, in experiment [2], the “Binding of a rabbit serum to linear peptides” value is listed as 0.1 and the “Binding of a rabbit serum to looped peptides” value is on record as 0.4.
Turning to ITAQPVKIDNASPAS, in experiment [1], the “Binding of Control Serum Blood-Bank to Looped peptides” value came to 0.5, the “Binding of Control serum Blood-bank to linear peptides” value stood at 0.7, the “Binding of Control serum LUMC to linear peptides” value amounted to 0.7 and the “Binding of Control serum LUMC to looped peptides” value was 0.5. Also, in experiment [2], the “Binding of a rabbit serum to linear peptides” value amounted to 0.1 and the “Binding of a rabbit serum to looped peptides” value came to 0.3.
IVNVSLVKPTVYVYS: in experiment [1], the “Binding of Control Serum Blood-Bank to Looped peptides” value is 0.9, the “Binding of Control serum Blood-bank to linear peptides” value came to 0.7, the “Binding of Control serum LUMC to linear peptides” value was determined as 0.4 and the “Binding of Control serum LUMC to looped peptides” value stood at 0.9. For the same sequence, in experiment [2], the “Binding of a rabbit serum to linear peptides” value turned out to be 0.5 and the “Binding of a rabbit serum to looped peptides” value came to 0.5.
Take KEDYQIGGYSEDRHS: in experiment [1], the “Binding of Control Serum Blood-Bank to Looped peptides” value is 0.3, the “Binding of Control serum Blood-bank to linear peptides” value was determined as 0.5, the “Binding of Control serum LUMC to linear peptides” value came to 0.5 and the “Binding of Control serum LUMC to looped peptides” value was 0.4. Moreover, in experiment [2], the “Binding of a rabbit serum to linear peptides” value amounted to 0.1 and the “Binding of a rabbit serum to looped peptides” value is given as 0.5.
KIDNASPASTVHATA: in experiment [1], the “Binding of Control Serum Blood-Bank to Looped peptides” value is 0.6, the “Binding of Control serum Blood-bank to linear peptides” value came out at 0.6, the “Binding of Control serum LUMC to linear peptides” value amounted to 0.7 and the “Binding of Control serum LUMC to looped peptides” value is given as 0.7. In experiment [2], the “Binding of a rabbit serum to linear peptides” value is listed as 0.2 and the “Binding of a rabbit serum to looped peptides” value stood at 0.3.
